One assay has as its target T1, IRAK4 (Homo sapiens, UniProt Q9NWZ3).
T1 sequence (Q9NWZ3 1-460): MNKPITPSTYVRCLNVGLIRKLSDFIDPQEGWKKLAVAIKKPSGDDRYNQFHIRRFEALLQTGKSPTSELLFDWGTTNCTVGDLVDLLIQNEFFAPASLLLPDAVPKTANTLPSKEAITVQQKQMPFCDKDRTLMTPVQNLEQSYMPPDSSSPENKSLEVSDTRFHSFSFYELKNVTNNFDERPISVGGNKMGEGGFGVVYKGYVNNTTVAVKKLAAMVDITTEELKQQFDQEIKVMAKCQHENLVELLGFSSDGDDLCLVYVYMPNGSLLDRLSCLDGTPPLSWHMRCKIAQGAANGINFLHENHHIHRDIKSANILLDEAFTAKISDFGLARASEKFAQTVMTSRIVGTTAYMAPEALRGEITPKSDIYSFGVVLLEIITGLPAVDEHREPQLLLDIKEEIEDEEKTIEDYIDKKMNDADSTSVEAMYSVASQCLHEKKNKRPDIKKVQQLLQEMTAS
Nature of the assay: IRAK4 Inhibition Assay. It is filed as biochemical. As to conditions: ATP 500 μM; fluoresceinated peptide 1.5 μM; IRAK4 0.6 nM; 60 min room temperature; Caliper LABCHIP. The protocol: The assays were performed in U-bottom 384-well plates. The final assay volume was 30 μL prepared from 15 μL additions of enzyme and substrates (fluoresceinated peptide and ATP) and test compounds in assay buffer (20 mM HEPES pH 7.2, 10 mM MgCl2, 0.015% Brij 35 and 4 mM DTT). The reaction was initiated by the combination of IRAK4 with substrates and test compounds. The reaction mixture was incubated at room temperature for 60 min. and terminated by adding 45 μL of 35 mM EDTA to each sample. The reaction mixture was analyzed on the Caliper LABCHIP® 3000 (Caliper, Hopkinton, MA) by electrophoretic separation of the fluorescent substrate and phosphorylated product. Inhibition data were calculated by comparison to no enzyme control reactions for 100% inhibition and vehicle-only reactions for 0% inhibition. The final concentrations of reagents in the assays are ATP, 500 μM; FL-IPTSPITTTYFFFKKK peptide 1.5 μM; IRAK4, 0.6 nM; and DMSO, 1.6%.

Another assay concerns Human whole blood. Nature of the assay: IRAK4 Whole Blood Assay. As to conditions: stimulated with TLR2 agonist lipoteichoic acid 10 μg/mL for 5 hours, IL-6 levels. It is filed as cell-based. The protocol:
Human whole blood containing the anti-coagulant ACD-A was plated in 384-well plate (25 μL/well) and incubated with compounds for 60 minutes at 37° C. in a 5% CO2 incubator. The blood was stimulated with a TLR2 agonist, 10 μg/mL final concentration of lipoteichoic acid (Invivogen, San Diego, CA) in 25 μL RPMI (Gibco) for 5 hours in a 5% CO2 incubator. At the end of the incubation, plates were centrifuged at 2300 rpm for 5 minutes. Supernatants were harvested and analyzed for IL-6 levels by Flow Cytometry beads assay (BD Biosciences, San Jose, CA).

Some results are limits rather than exact numbers.

The IC50 is the concentration at which inhibition is half-maximal. In general, EC50 refers to the concentration that produces a half-maximal response. As to `CC(C)Nc1c(C(=O)NCCN2CCOCC2)cnc2c1[nH]c1cc(C#N)ccc12` [Example 35, 7-cyano-4-(isopropylamino)-N-(2-morpholinoethyl)-5H-pyrido[3,2-b]indole-3-carboxamide], the IC50 on IRAK4 was found to be 3 nM. In the assay on Human whole blood, this molecule gave an EC50 of 770 nM. The corresponding values for `CC(C)Nc1c(C(=O)NCc2ncn[nH]2)cnc2c1[nH]c1cc(C#N)ccc12` [Example 20, N-((1H-1,2,4-triazol-5-yl)methyl)-7-cyano-4-(isopropylamino)-5H-pyrido[3,2-b] indole carboxamide] are 14 nM and 1050 nM. The corresponding values for `CC(C)(O)[C@H](F)CNC(=O)c1cnc2c([nH]c3cc(C#N)ccc32)c1NC1CCC1` [Example 4, (R)-7-cyano-4-(cyclobutylamino)-N-(2-fluoro-3-hydroxy-3-methylbutyl)-5H-pyrido[3,2-b]indole-3-carboxamide] are 2 nM and 1990 nM. Consider `CC(C)Nc1c(-c2cn(C3CCNCC3)nn2)cnc2c1[nH]c1cc(C#N)ccc12` [Example 75, 4-(isopropylamino)-3-(1-(piperidin-4-yl)-1H-1,2,3-triazol-4-yl)-5H-pyrido[3,2-b]indole-7-carbonitrile], for which, at IRAK4, the IC50 is 1.5 nM. This molecule also yielded an EC50 in the assay with Human whole blood of 930 nM. The corresponding values for `CC(C)Nc1c(-c2cc(C3CCNCC3)no2)cnc2c1[nH]c1cc(C#N)ccc12` [Example 76, 4-(isopropylamino)-3-(3-(piperidin-4-yl)isoxazol-5-yl)-5H-pyrido[3,2-b]indole-7-carbonitrile] are 2.3 nM and 820 nM. `CC(C)Nc1c(C(=O)NCCC(C)(C)NC(=O)C2CC2)cnc2c1[nH]c1cc(C#N)ccc12` [Example 59, 7-cyano-N-(3-(cyclopropanecarboxamido)-3-methylbutyl)-4-(isopropylamino)-5H-pyrido[3,2-b]indole-3-carboxamide]: at IRAK4, the IC50 was 5.4 nM. For the same molecule, in the assay on Human whole blood, the EC50 is above 10000 nM.

In the case of `CC(C)(O)[C@H](F)CNC(=O)c1cnc2c([nH]c3cc(C#N)ccc32)c1Nc1cnn(CC(F)F)c1` [Example 23, (R)-7-cyano-4-((1-(2,2-difluoroethyl)-1H-pyrazol-4-yl)amino)-N-(2-fluoro-3-hydroxy-3-methylbutyl)-5H-pyrido[3,2-b]indole-3-carboxamide], the IC50 on IRAK4 turned out to be 15 nM. Besides, the concentration giving a half-maximal response (EC50) in the assay with Human whole blood was above 10000 nM. The corresponding values for `Cc1cc(CNC(=O)c2cnc3c([nH]c4cc(C#N)ccc43)c2NC(C)C)on1` [Example 15, 7-cyano-4-(isopropylamino)-N-((3-methylisoxazol-5-yl)methyl)-5H-pyrido[3,2-b]indole-3-carboxamide] are 16 nM and 1450 nM. For the molecule `CC(C)(O)CCNC(=O)c1cnc2c([nH]c3cc(C#N)ccc32)c1N` [Example 54, 4-amino-7-cyano-N-(3-hydroxy-3-methylbutyl)-5H-pyrido[3,2-b] indole-3-carboxamide], the IC50 at IRAK4 came out at 14 nM. This molecule displayed an EC50 in the assay on Human whole blood above 10000 nM. The corresponding values for `CC(C)(O)[C@H]1C[C@H](NC(=O)c2cnc3c([nH]c4cc(C#N)ccc43)c2NC2CC2)C1` [Example 44, 7-cyano-4-(cyclopropylamino)-N-((1R,3R)-3-(2-hydroxypropan-2-yl)cyclobutyl)-5H-pyrido[3,2-b]indole-3-carboxamide] are 3.1 nM and 510 nM. The corresponding values for `CCNc1c(C(=O)NC[C@@H](F)C(C)(C)O)cnc2c1[nH]c1cc(C#N)ccc12` [Example 2, (R)-7-cyano-4-(ethylamino)-N-(2-fluoro-3-hydroxy-3-methylbutyl)-5H-pyrido[3,2-b]indole-3-carboxamide] are 1.6 nM and 1300 nM. Turning to `CC(C)(O)[C@H](F)CNC(=O)c1cnc2c([nH]c3cc(C#N)ccc32)c1NC1COC1` [Example 22, (R)-7-cyano-N-(2-fluoro-3-hydroxy-3-methylbutyl)-4-(oxetanylamino)-5H-pyrido[3,2-b]indole-3-carboxamide], on IRAK4, the IC50 is 2.1 nM. For the same molecule, a half-maximal effect with Human whole blood (EC50) was put at 230 nM.

As to `CC(C)Nc1c(-c2cn(CC3CC3)nn2)cnc2c1[nH]c1cc(C#N)ccc12` [Example 74, 3-(1-(cyclopropylmethyl)-1H-1,2,3-triazol-4-yl)-4-(isopropylamino)-5H-pyrido[3,2-b] indole-7-carbonitrile], the IC50 on IRAK4 stood at 9.2 nM. This molecule also showed an EC50 in the assay with Human whole blood above 10000 nM. The corresponding values for `CC(C)(O)[C@H](F)CNC(=O)c1cnc2c([nH]c3cc(C#N)ccc32)c1NC1CC(F)(F)C1` [Example 3, (R)-7-cyano-4-((3,3-difluorocyclobutyl)amino)-N-(2-fluoro-3-hydroxy-3-methylbutyl)-5H-pyrido[3,2-b]indole-3-carboxamide] are 19 nM and 2470 nM. The corresponding values for `CC(C)Nc1c(C(=O)NCc2nccs2)cnc2c1[nH]c1cc(C#N)ccc12` [Example 18, 7-cyano-4-(isopropylamino)-N-(thiazol-2-ylmethyl)-5H-pyrido[3,2-b]indole-3-carboxamide] are 17 nM and 8170 nM. The corresponding values for `CC(=O)N[C@H]1CC[C@H](NC(=O)c2cnc3c([nH]c4cc(C#N)ccc43)c2NC(C)C)CC1` [Example 13, N-((1R,4R)-4-acetamidocyclohexyl)-7-cyano-4-(isopropylamino)-5H-pyrido[3,2-b]indole-3-carboxamide] are 3.7 nM and 2210 nM. On to `C[C@@H](CO)Nc1c(C(=O)NCCC(C)(C)O)cnc2c1[nH]c1cc(C#N)ccc12` [Example 30, (S)-7-cyano-N-(3-hydroxy-3-methylbutyl)-4-((1-hydroxypropan-2-yl)amino)-5H-pyrido[3,2-b]indole-3-carboxamide], for which the IC50 at IRAK4 was determined as 5.3 nM. In the assay on Human whole blood, this molecule registered an EC50 of 3380 nM. The corresponding values for `CC(C)Nc1c(C(=O)NCCC(C)(C)O)cnc2c1[nH]c1cc(C#N)ccc12` [Example 5, 7-cyano-N-(3-hydroxy-3-methylbutyl)-4-(isopropylamino)-5H-pyrido[3,2-b]indole-3-carboxamide] are 3.8 nM and 1440 nM.

`CC(O)CCNC(=O)c1cnc2c([nH]c3cc(C#N)ccc32)c1NC(C)C` (stereo not drawn) [Example 25, 7-cyano-N-(3-hydroxybutyl)-4-(isopropylamino)-5H-pyrido[3,2-b]indole-3-carboxamide]: the IC50 on IRAK4 stood at 3.5 nM. In the assay on Human whole blood, this molecule showed an EC50 of 1500 nM. Consider `CC(C)Nc1c(-c2cc(C3CCCNC3)no2)cnc2c1[nH]c1cc(C#N)ccc12` (stereo not drawn) [Example 79, 4-(isopropylamino)-3-(3-(piperidin-3-yl)isoxazol-5-yl)-5H-pyrido[3,2-b]indole-7-carbonitrile], for which, at IRAK4, the IC50 was determined as 22 nM. On the same count and under the same terms, in the case of `CC(C)(O)CCNC(=O)c1cnc2c([nH]c3cc(C#N)ccc32)c1NCC1CC1` [Example 33, 7-cyano-4-((cyclopropylmethyl)amino)-N-(3-hydroxy-3-methylbutyl)-5H-pyrido[3,2-b] indole-3-carboxamide] it was 30.8 nM. The same measure, in the same setting: the figure for `CC(C)Nc1c(C(=O)NCCC2CC2)cnc2[nH]c3ccc(C#N)cc3c12` [Example 82, 6-cyano-N-(2-cyclopropylethyl)-4-(isopropylamino)-9H-pyrido[2,3-b]indole-3-carboxamide] is 650 nM; for `CC(C)Nc1c(C(=O)NCCc2nnn[nH]2)cnc2c1[nH]c1cc(C#N)ccc12` [Example 65, N-(2-(1H-tetrazol-5-yl)ethyl)-7-cyano-4-(isopropylamino)-5H-pyrido[3,2-b]indole-3-carboxamide] it is 100 nM. `CC(C)Nc1c(C(=O)NC(CCO)C2CC2)cnc2c1[nH]c1cc(C#N)ccc12` (stereo not drawn) [Example 16, 7-cyano-N-(1-cyclopropyl-3-hydroxypropyl)-4-(isopropylamino)-5H-pyrido[3,2-b]indole-3-carboxamide]: the IC50 on IRAK4 was determined as 310 nM. Still for that read-out and setting: the figure for `CC(C)(O)CCNC(=O)c1cnc2c([nH]c3cc(C#N)ccc32)c1NCC(F)(F)F` [Example 37, 7-cyano-N-(3-hydroxy-3-methylbutyl)-4-((2,2,2-trifluoroethyl)amino)-5H-pyrido[3,2-b]indole-3-carboxamide] is 14 nM; for `CC(C)Nc1c(C(=O)NCC(C)(C)CO)cnc2c1[nH]c1cc(C#N)ccc12` [Example 9, 7-cyano-N-(3-hydroxy-2,2-dimethylpropyl)-4-(isopropylamino)-5H-pyrido[3,2-b]indole-3-carboxamide] it is 330 nM.
